The term Ki denotes the equilibrium dissociation constant of an inhibitor or competing ligand from its target. Read a low Ki as tighter binding. What is called Km is the substrate concentration at which the rate is half of its maximum. As a reminder, the kcat is the number of substrate molecules converted per active site and unit of time at saturation.

Assay [1] has as its target T1, ALKBH3 (Homo sapiens, UniProt Q96Q83).
T1 sequence (Q96Q83 1-286): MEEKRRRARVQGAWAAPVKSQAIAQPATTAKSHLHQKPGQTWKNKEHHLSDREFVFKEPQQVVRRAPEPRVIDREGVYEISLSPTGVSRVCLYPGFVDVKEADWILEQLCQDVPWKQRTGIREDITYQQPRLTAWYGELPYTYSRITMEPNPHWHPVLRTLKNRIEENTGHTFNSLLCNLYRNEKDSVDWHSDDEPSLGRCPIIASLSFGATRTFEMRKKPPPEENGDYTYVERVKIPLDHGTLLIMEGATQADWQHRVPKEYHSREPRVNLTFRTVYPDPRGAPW
Nature of the assay: Inhibition constant. Format: biochemical. Conditions: versus αKG, 37 °C.

Assay [2] deals with T2, AlkB (Escherichia coli, UniProt P05050). In words: Inhibition constant. Format: biochemical.
Assay [3] has as its target T3, ALKBH2 (Homo sapiens, UniProt Q6NS38).
T3 sequence (Q6NS38 1-261): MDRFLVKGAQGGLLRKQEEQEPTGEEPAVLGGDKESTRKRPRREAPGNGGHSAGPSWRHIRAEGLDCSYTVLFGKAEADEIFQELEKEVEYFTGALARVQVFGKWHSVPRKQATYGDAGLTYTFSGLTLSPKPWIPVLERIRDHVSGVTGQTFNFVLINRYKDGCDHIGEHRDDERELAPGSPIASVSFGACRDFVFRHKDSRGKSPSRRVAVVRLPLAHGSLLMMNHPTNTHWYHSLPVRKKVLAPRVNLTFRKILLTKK
Nature of the assay: Inhibition of ALKBH2 repair at tumor-relevant 2HG:αKG ratios. It counts as biochemical. Conditions: L-2HG:αKG = 28:1, αKG 100 µM; range over all substrates.

The target of assay [4] is T1, ALKBH3. In words: Inhibition of ALKBH3 repair at tumor-relevant 2HG:αKG ratios. The note with it: L-2HG:αKG = 28:1, αKG 100 µM; range over all substrates. It counts as biochemical.
The next assay concerns ALKBH2 and ALKBH3. Format: biochemical, human. Conditions: L-2HG:αKG = 28:1, αKG 100 µM; range over both enzymes and all substrates.
In assay [5] the target is T3, ALKBH2. In words: Inhibition constant. It counts as biochemical. The note with it: for Ki: versus αKG, 37 °C.
Assay [6] has as its target T3, ALKBH2. Conditions: 37 °C.
The target of assay [7] is T1, ALKBH3. The note with it: 37 °C.
For assay [8], the target named is T2, AlkB. The note with it: 37 °C.
Setting [9] is: AlkB, ds-m1A, versus αKG, 37 °C.
[10] abbreviates: AlkB, ds-m3C, versus αKG, 37 °C.
The mark [11] stands for this setting: AlkB, ss-m1A, versus αKG, 37 °C.
Where [12] appears, read: AlkB, ss-m3C, versus αKG, 37 °C.

Like-named read-outs stand apart in the source and are kept apart here.

T2 sequence (P05050 whole entry): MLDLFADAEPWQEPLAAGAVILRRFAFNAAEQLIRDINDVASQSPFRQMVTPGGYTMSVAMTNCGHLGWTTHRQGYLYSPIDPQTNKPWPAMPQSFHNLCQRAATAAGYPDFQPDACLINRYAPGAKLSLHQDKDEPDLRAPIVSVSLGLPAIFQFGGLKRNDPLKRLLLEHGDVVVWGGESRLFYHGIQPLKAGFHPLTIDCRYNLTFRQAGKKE

Consider `O=C(O)CC[C@@H](O)C(=O)O` [D-2HG, D-2-hydroxyglutarate], for which the inhibition constant Ki on ALKBH3 [1] (ALKBH3, ss-m1A) was 545 ± 77 µM; at ALKBH3 [1] (ALKBH3, ss-m3C) it was 490 ± 46 µM; at AlkB [2] (setting [9]), 529 ± 126 µM; at AlkB [2] (setting [10]), 230 ± 55 µM; at AlkB [2] (setting [11]), 571 ± 166 µM; on AlkB [2] (setting [12]), 447 ± 113 µM.
On to `O=C(O)CC[C@H](O)C(=O)O` [L-2HG, L-2-hydroxyglutarate], for which the inhibition constant (Ki) on ALKBH3 [1] (ALKBH3, ss-m1A) was 185 ± 23 µM; on ALKBH3 [1] (ALKBH3, ss-m3C) it was 228 ± 16 µM; on AlkB [2] (setting [9]), 598 ± 173 µM; at AlkB [2] (setting [10]), 308 ± 108 µM; at AlkB [2] (setting [11]) it was 337 ± 99 µM; on AlkB [2] (setting [12]) it was 276 ± 111 µM. Moreover, the “inhibition of ALKBH2 activity” value at ALKBH2 [3] is listed as 48–58%. For the same compound, on ALKBH3 [4], the “inhibition of ALKBH3 activity” value is 31–40%. The “inhibition of ALKBH2 and ALKBH3 repair activities” value with ALKBH2 and ALKBH3 is 31–58%.
Regarding `O=C(O)CNC(=O)C(=O)O` [N-OG, N-oxalylglycine, reference compound], the Ki at ALKBH2 [5] (ALKBH2, ds-m1A) was 16 ± 5 µM; on ALKBH2 [5] (ALKBH2, ds-m3C) it was 7 ± 2 µM; at ALKBH2 [5] (ALKBH2, ss-m1A), 30 ± 7 µM; at ALKBH2 [5] (ALKBH2, ss-m3C), 40 ± 7 µM; at ALKBH3 [1] (Ki, ALKBH3, ss-m1A) it was 27 ± 4 µM; on ALKBH3 [1] (Ki, ALKBH3, ss-m3C), 37 ± 3 µM. The Ki on AlkB [2] worked out at 2 ± 1.3 µM; at AlkB [2] (Ki, AlkB, ds-m3C, versus αKG, 37 °C), 0.2 µM; at AlkB [2] (Ki, AlkB, ss-m1A, versus αKG, 37 °C) it was 0.4 ± 0.1 µM; on AlkB [2] (Ki, AlkB, ss-m3C, versus αKG, 37 °C), 0.4 ± 0.1 µM. Also, the “potency relative to D- and L-2HG” value at ALKBH2 [5] (from Ki values, all repair reactions) is “about 10 times”.
As to `O=C(O)CCC(=O)C(=O)O` [αKG, α-ketoglutarate], the Km on ALKBH2 [6] (ALKBH2, ds-m1A) came out at 7.3 ± 0.9 µM; at ALKBH2 [6] (ALKBH2, ds-m3C), 1.9 ± 0.4 µM; at ALKBH2 [6] (ALKBH2, ss-m1A), 4.1 ± 0.9 µM; at ALKBH2 [6] (ALKBH2, ss-m3C), 1.4 ± 0.2 µM; on ALKBH3 [7] (ALKBH3, ss-m1A), 2.3 ± 0.1 µM; on ALKBH3 [7] (ALKBH3, ss-m3C), 1.9 ± 0.4 µM. The Km on AlkB [8] (ds-m1A) was 12.7 ± 1.3 µM; on AlkB [8] (ds-m3C) it was 10.8 ± 1.9 µM; at AlkB [8] (ss-m1A), 7.1 ± 1.1 µM; at AlkB [8] (ss-m3C), 19.9 ± 1.3 µM. Besides, the catalytic constant (kcat) at ALKBH2 [6] (ALKBH2, ds-m1A) amounted to 0.0417 ± 0.0017 s⁻¹; at ALKBH2 [6] (ALKBH2, ds-m3C), 0.0433 ± 0.0017 s⁻¹; at ALKBH2 [6] (ALKBH2, ss-m1A) it was 0.0183 ± 0.0017 s⁻¹; on ALKBH2 [6] (ALKBH2, ss-m3C) it was 0.0283 ± 0.0017 s⁻¹; at ALKBH3 [7] (ALKBH3, ss-m1A), 0.02 ± 0 s⁻¹; on ALKBH3 [7] (ALKBH3, ss-m3C), 0.0283 ± 0 s⁻¹. For the same compound, the catalytic constant (kcat) on AlkB [8] (ds-m1A) stood at 0.08 ± 0.0033 s⁻¹; at AlkB [8] (ds-m3C), 0.137 ± 0.0067 s⁻¹; on AlkB [8] (ss-m1A), 0.07 ± 0.0033 s⁻¹; at AlkB [8] (ss-m3C), 0.408 ± 0.012 s⁻¹.

The record behind these values is article PMC5498157 (Chemical research in toxicology, 2017).
